Measurements published in patent publication US3966824A, “P,P'-Disubstituted α-trichloromethylbenzylphenyl ethers” (University of Illinois Foundation, priority 1974, dated 1976).
“Also recorded” adds a separate entry of the source.

Columns and labels:
[1] = test system: multifunction oxidase (MFO) enzymes; conditions: cited from earlier work
animals = conditions: prior art; cited from earlier work
[2] = cited from earlier work
Phormia regina = assay: Topical toxicity to Phormia regina, alone and with piperonyl butoxide; type: in vivo; conditions: for LD50: Phormia regina, alone; for LD50 / Topical LD50, Phormia regina, pb: topical; for Topical LD50, Phormia regina, pb: synergized with piperonyl butoxide (pb); for SR (synergistic ratio), Phormia regina: LD50 alone / LD50 synergized with piperonyl butoxide; for toxicity to Phormia: in vivo
Experimental: (§1) The compounds of the present invention were tested for insecticidal activity by standard methods, and compared with the insecticidal activities of DDT and symmetrical analogs of DDT, such as methoxychlor. Toxicological methods for the determination of the topical LD50 values to adult female SNAIDM and PSR houseflies, Musca domestica L. and to Phormia regina, and LC50 values to clex pipiens quinquefas ciatus Say, and Anopheles albimanus Weid mosquitoes were described by Metcalf et al., 44 Bull. World Health Org. 363 (1971). The methods for evaluation of metabolism by mouse liver homogenate and by female RSP housefly and salt-marsh caterpillar larvae Estigmene acrea Drury, were described by Metcalf et al., 5 J. Environ. Sci. Tech. 709 (1971).
(§2) The synergistic ratios or SR values (LD50 alone/ LD50 synergized with piperonyl butoxide) shown in Table II indicate the role of the multifunction oxidase (MFO) in detoxifying the individual compounds. Since piperonyl butoxide serves to block the action of MFO, the synergized LD50 values express the intrinsic toxicity of the compounds. With the detoxifying action of MFO enzymes blocked, the intrinsic toxicity of the compounds can thus be measured.

Musca domestica Rsp = assay: Topical toxicity to adult female Rsp (resistant) houseflies, alone and with piperonyl butoxide; type: in vivo, Musca domestica L.; conditions: for SR (synergistic ratio), Musca domestica Rsp: LD50 alone / LD50 synergized with piperonyl butoxide; for LD50: Musca domestica, alone; for LD50 / Topical LD50, Musca domestica Rsp, pb: Rsp strain, topical; for Topical LD50, Musca domestica Rsp, pb: synergized with piperonyl butoxide (pb)
Experimental: as §1, §2

[3] = test system: Anopheles albimanus larvae; assay: Toxicity to Anopheles albimanus mosquito larvae; type: in vivo
Experimental: as §1

mosquito larvae = assay: Toxicity to mosquito larvae (general statement); conditions: in vivo
Experimental: as §1

Culex fatigans larvae = assay: Toxicity to Culex mosquito larvae; type: in vivo
Experimental: as §1

Musca domestica SNAIDM = assay: Topical toxicity to adult female SNAIDM (susceptible) houseflies, alone and with piperonyl butoxide; type: in vivo, Musca domestica L.; conditions: for SR (synergistic ratio), Musca domestica SNAIDM: LD50 alone / LD50 synergized with piperonyl butoxide; for LD50: Musca domestica, alone; for LD50 / Topical LD50, Musca domestica SNAIDM, pb: SNAIDM strain, topical; for Topical LD50, Musca domestica SNAIDM, pb: synergized with piperonyl butoxide (pb)
Experimental: as §1, §2

[4] = test system: multifunction oxidase (MFO) enzymes; assay: Biodegradability / metabolism by multifunction oxidase (MFO) enzymes (insects, mice, model ecosystem); type: in vitro ADME; conditions: inferred from SR values
Text: (§3) It has been found from metabolic studies on insects, and mice, using a model ecosystem and the methods described in Kapoor, et al., 18(6) J.Agr., Food Chem. 1145 (1970), Metcalf, et al., J. Environ. Sci. Technol. 709 (1971) and also in the copending application of Metcalf et al., "Insecticidal Biodegradable Analogues of DDT", Ser. No. 147,241, filed May 26, 1971, and having a common assignee with the present application, that certain p,p'-disubstituted α-trichloromethylbenzylphenyl ethers with various substituent groups are readily attacked by multifunction oxidase (MFO) enzymes, and thus are substantially biodegradable.
as §1, with “709 (1971). […]” for “709 (1971).”

insects [5] = assay: General insecticidal activity (house flies, blow fly, mosquitoes and other insects); type: in vivo; conditions: comparison among the 9 ethers of Table II
Text: as §3, §1

insects [6] = conditions: relative to DDT where stated; cited from earlier work

| Structure (SMILES) | LD50 (Phormia regina) [mg/kg] | Topical LD50, Phormia regina, pb (Phormia regina) [μg per g] | SR (synergistic ratio), Musca domestica Rsp (Musca domestica Rsp) | LD50 (Musca domestica Rsp) [mg/kg] | Topical LD50, Musca domestica Rsp, pb (Musca domestica Rsp) [μg per g] | LC50 Anopheles albimanus larvae [3] [ppm] | LC50 Culex fatigans larvae (Culex fatigans larvae) [ppm] | SR (synergistic ratio), Musca domestica SNAIDM (Musca domestica SNAIDM) | LD50 (Musca domestica SNAIDM) [mg/kg] | Topical LD50, Musca domestica SNAIDM, pb (Musca domestica SNAIDM) [μg per g] | SR (synergistic ratio), Phormia regina (Phormia regina) | also measured |
| --- | --- | --- | --- | --- | --- | --- | --- | --- | --- | --- | --- | --- |
| Clc1ccc(C(c2ccc(Cl)cc2)C(Cl)Cl)cc1 [DDD, 1,1-dichloro-2,2-bis(p-chlorophenyl)ethane] | – | – | – | – | – | – | – | – | – | – | – | biodegradability / attack by MFO enzymes of prior art compounds [1]: do not function on DDT and its metabolic derivatives DDE and DDD (or TDE) |
| ClC(Cl)=C(c1ccc(Cl)cc1)c1ccc(Cl)cc1 [DDE, 1,1-dichloro-2,2-bis(p-chlorophenyl) ethylene] | – | – | – | – | – | – | – | – | – | – | – | biodegradability / attack by MFO enzymes of prior art compounds [1]: do not function on DDT and its metabolic derivatives DDE and DDD (or TDE) |
| Clc1ccc(C(c2ccc(Cl)cc2)C(Cl)(Cl)Cl)cc1 [DDT, 1,1, 1 trichloro-2,2-bis(p-chlorophenyl)ethane] | – | – | – | – | – | – | – | – | – | – | – | accumulation in animal tissues (animals): accumulation in the fatty or lipid tissues of animals; lipid solubility [2]: high lipid solubility; water solubility [2]: very low water solubility |
| Clc1ccc(OC(c2ccc(Cl)cc2)C(Cl)(Cl)Cl)cc1 (stereo not drawn) [I, α-trichloromethyl-p-chlorobenzyl p-chlorophenyl ether] | > 250 | > 250 | > 3.6 | > 500 | 180 | 0.014 | 0.035 | 1.0 | 90 | 90 | – | toxicity to mosquito larvae (mosquito larvae): the most toxic |
| COc1ccc(OC(c2ccc(OC)cc2)C(Cl)(Cl)Cl)cc1 (stereo not drawn) [II, α-trichloromethyl-p-methoxybenzyl p-methoxyphenyl ether] | 125 | 82.5 | > 8.7 | > 500 | 57.5 | 0.10 | 0.51 | 22 | 300 | 14.0 | 1.5 | detoxication in susceptible and resistant houseflies [4]: rapid detoxication |
| Cc1ccc(OC(c2ccc(C)cc2)C(Cl)(Cl)Cl)cc1 (stereo not shown) [III] | 135 | 100 | > 3 | > 500 | 145 | 0.18 | 0.12 | 2.9 | 265 | 90 | 1.35 | – |
| CCOc1ccc(OC(c2ccc(OCC)cc2)C(Cl)(Cl)Cl)cc1 (stereo not shown) [IV] | 16.5 | 16.5 | 1.7 | 42 | 24.5 | 0.07 | 0.11 | 2.1 | 27 | 13.0 | 1.0 | toxicity to Phormia (Phormia regina): quite toxic to Phormia; intrinsic toxicity / insecticidal effectiveness (insects [5]): highest intrinsic toxicity |
| COc1ccc(C(Oc2ccc(C)cc2)C(Cl)(Cl)Cl)cc1 (stereo not shown) [IX] | > 250 | > 250 | > 4 | > 500 | 135 | > 1.0 | 0.65 | > 13 | > 500 | 39.0 | – | – |
| CCOc1ccc(C(Oc2ccc(Cl)cc2)C(Cl)(Cl)Cl)cc1 (stereo not drawn) [VI, α-trichloromethyl-p-ethoxybenzyl p-chlorophenyl ether] | 31.2 | 31.2 | 2.5 | 31 | 12.5 | 0.044 | 0.067 | 1.9 | 18.5 | 9.5 | 1.0 | toxicity to Phormia (Phormia regina): only slightly less toxic to Phormia than the p,p'-diethoxy compound IV; intrinsic toxicity / insecticidal effectiveness (insects [5]): highest intrinsic toxicity; also recorded: most effective insecticide generally; toxicity to mosquito larvae (mosquito larvae): only slightly less toxic; housefly LD50 (Musca domestica SNAIDM; comparison among compounds of Table II): lowest LD50 values to the housefly |
| CCOc1ccc(C(Oc2ccc(C)cc2)C(Cl)(Cl)Cl)cc1 (stereo not shown) [VIII] | 46.2 | 30.0 | 2.9 | 65 | 22.0 | 0.066 | 0.18 | 3.5 | 72.5 | 20.5 | 1.5 | – |
| CCOc1ccc(C(Oc2ccc(OC)cc2)C(Cl)(Cl)Cl)cc1 (stereo not shown) [VII] | 30 | 16.0 | 6.4 | 90 | 14.0 | 0.034 | 0.14 | 9.0 | 45 | 5.0 | 1.9 | toxicity to Phormia (Phormia regina): quite toxic to Phormia; intrinsic toxicity / insecticidal effectiveness (insects [5]): highest intrinsic toxicity |
| COc1ccc(C(Oc2ccc(Cl)cc2)C(Cl)(Cl)Cl)cc1 (stereo not shown) [V] | 205 | 115 | 1.6 | 130 | 82.5 | 0.038 | 0.14 | 6.3 | 108 | 17.0 | 1.8 | – |
| CSc1ccc(C(c2ccc(SC)cc2)C(Cl)(Cl)Cl)cc1 [methiochlor, 1,1,1-trichloro-2,2-bis-(p-methiophenyl) ethane] | – | – | – | – | – | – | – | – | – | – | – | insecticidal activity of prior art compounds (insects [6]): considerably less insecticidal activity than DDT towards other species of insects; biodegradability / attack by MFO enzymes of prior art compounds [1]: readily attacked by MFO enzymes |
| COc1ccc(C(c2ccc(OC)cc2)C(Cl)(Cl)Cl)cc1 [methoxychlor, 1,1,1-trichloro-,2,2-bis(p-methoxyphenyl)ethane] | – | – | – | – | – | – | – | – | – | – | – | accumulation in animal tissues (animals): not generally accumulated in animal tissues; insecticidal activity of prior art compounds (insects [6]): considerably less insecticidal activity than DDT towards other species of insects; biodegradability / attack by MFO enzymes of prior art compounds [1]: readily attacked by MFO enzymes |
| Cc1ccc(C(c2ccc(C)cc2)C(Cl)(Cl)Cl)cc1 [methylchlor, 1,1,1-trichloro-2,2-bis(p-methylphenyl)ethane] | – | – | – | – | – | – | – | – | – | – | – | insecticidal activity of prior art compounds (insects [6]): considerably less insecticidal activity than DDT towards other species of insects |
